{"source": "patent US20140350097A1", "about": "“TREATMENT OF HYPOTENSION ASSOCIATED WITH HEMODIALYSIS” (priority 2013, published 2014)", "key": {"beagle dogs": {"system": "beagle dogs", "assay": "14-day infusion toxicity in beagle dogs", "type": "in vivo", "procedure": "Based on the findings from the 4-day study, doses of NOX-100 at 100, 500 and 1000 mg/kg/day infused over a period of 8 hours for 14 days were evaluated in beagle dogs. […] Therefore the high dose of 1000 mg/kg/day was reduced to 250 mg/kg/day on Days 8-14. […] The low dose of 100 mg/kg/day over a period of 8 hours was considered a no-effect level.\nThe no adverse effect level in dogs (the animal that appeared most sensitive to the effects of NOX-100) was 100 mg/kg given as an 8 hour daily infusion for 14 days. In this study, the NOX-100 was administered as an 11.1 mg/kg bolus loading dose and an 8-hour 11.1 mg/kg/hr infusion maintenance dose."}, "[1]": {"system": "subjects with hypotensive episodes during hemodialysis", "assay": "Human clinical dose escalation study in hemodialysis subjects with hypotensive episodes", "type": "in vivo", "excerpt": "In that study, the drug was given to subjects who had at least 3 hypotensive episodes during hemodialysis in the prior month. Subjects received the drug during hemodialysis when systolic blood pressure (SBP) had fallen at least 15 mmHg. The following trends appeared between drug and placebo periods. […] The SBP over this time period averaged 4 mmHg higher for drug than for placebo with a standard deviation of 16 mmHg. […] As hypotension worsened, the patients developed several different symptoms that were not predictable for any given patient. Clinical interventions intended to relieve hypotension were also variable and were applied at inconsistent times from patient to patient. This was a result of long standing practices established by patient and nurse to avoid severe symptoms. For example, patients would sometimes request an intervention that they thought would be helpful and nurses would sometimes institute an intervention when they thought that a blood pressure trend might soon lead to symptoms. It was felt unethical to intervene in this process, since the aim was to avoid patient discomfort."}, "[2]": {"assay": "Pharmacokinetics after bolus administration in hemodialysis subjects", "type": "in vivo, human", "excerpt": "FIG. 1 depicts the results of plasma Cmax of NOX-100 after bolus administration in hemodialysis subjects as a function of dose. See Example 4.\nFIG. 2 depicts the results of Area Under the Curve (AUC) of NOX-100 after bolus administration in hemodialysis subjects as a function of dose. See Example 4.\nFIG. 3 depicts a histogram of plasma clearance of NOX-100 during dialysis after bolus administration in hemodialysis subject as a function of dose. Legend (x-axis, left to right): 0.33, 1, 3, 9, 25 and 50, mg/kg NOX-100. See Example 4."}, "albino rats": {"system": "albino rats", "assay": "Single dose infusion toxicity in albino rats", "type": "in vivo", "settings": "single dose 1000, 1450 or 2000 mg/kg infused over 2 or 8 hours", "procedure": "Based on the preliminary I.V. and S.C. studies, doses of 1000, 1450 or 2000 mg/kg of NOX-100 administered over an 8-hour period were tested in albino rats. A total dose of 2000 mg/kg administered over a shorter period of 2 hours was then tested."}, "[3]": {"assay": "Binding of .NO by NOX-100 in the presence of a metal ion", "settings": "in the presence of a metal ion (e.g., iron)", "excerpt": "As illustrated in Scheme 1 following, the binding is a two-step process. First, two molecules of NOX-100 combine with Fe^2+ to form a complex, [(NOX)2-Fe], which is held together via the planar coordination of the Fe^2+ by two dithiocarbamates. Next, the [(NOX)2-Fe] complex tightly binds .NO, forming an .NO-containing complex, [(NOX)2-Fe—NO]. See e.g., Yokokawa et al, 1995, Id.; Kang et al, 1997, Id."}, "[4]": {"assay": "Preliminary intravenous pharmacokinetics in dogs", "type": "in vivo, dog", "settings": "bolus injection 30 mg/kg i.v.", "procedure": "(§1) The pharmacokinetics of intravenously administered NOX-100 was evaluated in mice, rats and dogs. Preliminary pharmacokinetic studies were conducted using a bolus injection of 30 mg/kg. Post injection, the drug was rapidly eliminated in all three species in a bi-exponential manner with a beta-t½ of approximately 6, 30 and 40 minutes in the mouse, rat and dog, respectively. […] The volume of distribution was around 20-30% of body weight and was similar in the three species. This is likely due to the hydrophilic nature of the drug and may reflect the distribution of NOX-100 primarily in the extracellular space."}, "[5]": {"system": "rat model of shock induced by hemorrhage", "assay": "Hemorrhagic shock rat model", "type": "in vivo", "settings": "rats, 0.1 mmol/kg/hour", "excerpt": "Treatment of these rats with NOX-100 (0.1 mmol/kg/hour) reduced the blood volume needed to maintain the blood pressure during shock and improved mean arterial pressure after resuscitation."}, "Sprague-Dawley rats": {"system": "Sprague-Dawley rats", "assay": "14-day infusion toxicity in Sprague-Dawley rats", "type": "in vivo", "procedure": "The safety profile of NOX-100 was further evaluated in Sprague-Dawley rats (10/sex/group for the main study and 24/sex/group for the satellite groups for plasma concentration determination). Rats were administered with NOX-100 at 0, 100, 500 or 2000 mg/kg/day by infusion over a period of 8 hours for 14 days.\nThe dose of 100 mg/kg/day is considered the no-effect-level in rats."}, "[6]": {"assay": "Preliminary intravenous pharmacokinetics in rats", "type": "in vivo, rat", "settings": "bolus injection 30 mg/kg i.v.", "procedure": "as §1"}, "[7]": {"settings": "24 hours after hemorrhagic shock"}, "[8]": {"settings": "females, 500 mg/kg/day, 14 days"}}}
{"smiles": "CN(C[C@H](O)[C@@H](O)[C@H](O)[C@H](O)CO)C(=S)S", "note": "[NOX-100, N-methyl-D-glucamine dithiocarbamate]", "values": [{"measurement": "mortality", "setting": "beagle dogs; 1000 mg/kg/day, 8-hour infusion", "value": "One male dog in the high dose (1000 mg/kg/day) group died on Day 6"}, {"measurement": "dose concentration relationship", "setting": "beagle dogs; dog, in vivo", "value": "proportional dose concentration relationship"}, {"measurement": "mean plasma concentration throughout Days 1, 7 and 14", "setting": "beagle dogs; dog, in vivo", "value": "similar"}, {"measurement": "mean steady state plasma concentrations, males versus females", "setting": "beagle dogs; dog, in vivo", "value": "no differences"}, {"measurement": "dose level of initial toxicity as multiple of the no adverse effect level", "setting": "beagle dogs; dogs", "value": 5, "unit": "times"}, {"measurement": "no adverse effect level", "setting": "beagle dogs; dogs, 8 hour daily infusion for 14 days", "value": 100, "unit": "mg/kg"}, {"measurement": "no-effect level", "setting": "beagle dogs; dogs, over a period of 8 hours, 14 days", "value": 100, "unit": "mg/kg/day"}, {"measurement": "mean plasma concentration between 4 to 7.75 hours from the start of infusion", "setting": "beagle dogs; each day", "value": "remained constant"}, {"measurement": "clinical and laboratory findings accompanied by renal lesions", "setting": "beagle dogs; generally at 500 or 1000 mg/kg/day", "value": "Clinical signs of deterioration, reduction in body weight and food intake together with changes in serum chemistry and creatinine clearance"}, {"measurement": "histopathological examination of the animal that died", "setting": "beagle dogs; male, 1000 mg/kg/day", "value": "renal lesions consisting of tubular basophilia and dilatation, hyperplasia of the transitional epithelium of the papilla and some vascular hemorrhage or congestion"}, {"measurement": "clinically significant toxicity", "setting": "[1]; 7 dose escalations, 4 subjects per group", "value": "did not reveal any clinically significant toxicity at any dose"}, {"measurement": "average SBP difference, drug higher than placebo", "setting": "[1]; 30 to 120 minutes following drug administration, standard deviation 16 mmHg", "value": 4, "unit": "mmHg"}, {"measurement": "heart rate, diastolic blood pressure, number of interventions for low blood pressure or number of symptoms, drug versus placebo periods", "setting": "[1]; hemodialysis subjects", "value": "no apparent differences"}, {"measurement": "systolic blood pressure (SBP), drug versus placebo", "setting": "[1]; three highest doses, 30 to 120 minutes following drug administration", "value": "trend for SBP to be higher after drug than after placebo"}, {"measurement": "plasma clearance during dialysis versus dose", "setting": "[2]; 0.33-50 mg/kg, FIG. 3", "value": "decreased slightly with higher doses but the difference was not statistically significant"}, {"measurement": "plasma Cmax versus dose", "setting": "[2]; bolus administration, hemodialysis subjects, FIG. 1", "value": "proportional to the dose"}, {"measurement": "Area Under the Curve (AUC) versus dose", "setting": "[2]; bolus administration, hemodialysis subjects, FIG. 2", "value": "proportional to the dose"}, {"measurement": "clearance", "setting": "[2]; human, plasma, intravenous, averaged clearance from the 1, 9, and 50 mg/kg cohorts, read-out: plasma clearance during dialysis", "value": "~3.3", "unit": "mL/min/kg"}, {"measurement": "mortality", "setting": "albino rats", "value": "no mortality"}, {"measurement": "binding of .NO", "setting": "[3]", "value": "binds .NO very tightly"}, {"measurement": "clearance", "setting": "[4]; dog, in vivo, iv, dogs, read-out: clearance rate", "value": "4.1 ± 0.6", "unit": "mL/min/kg"}, {"measurement": "volume of distribution", "setting": "[4]; dogs", "value": "20-30 % of body weight"}, {"measurement": "half-life", "setting": "[4]; in vivo, iv, dog, read-out: beta-t½", "value": "~40", "unit": "min"}, {"measurement": "blood volume needed to maintain the blood pressure during shock", "setting": "[5]", "value": "reduced"}, {"measurement": "mean arterial pressure after resuscitation", "setting": "[5]", "value": "improved"}, {"measurement": "elevation of serum ornithine carbamoyltransferase (indicator of hepatic injury)", "setting": "[5]; [7]", "value": "prevented"}, {"measurement": "inflammatory gene expression", "setting": "[5]; [7]", "value": "prevented"}, {"measurement": "transcription factor activation", "setting": "[5]; [7]", "value": "prevented"}, {"measurement": "microscopic findings in urinary bladder and duodenum", "setting": "Sprague-Dawley rats; 2000 mg/kg/day, 14 days", "value": "hyperplasia of the urinary bladder and increased mitotic figures and dilatation of lymphatic vessels in the duodenum"}, {"measurement": "clinical chemistry, urinary output and kidney weight changes", "setting": "Sprague-Dawley rats; 8-hour infusion, 14 days", "value": "Elevations in blood urea nitrogen and creatinine, increases in urinary output and kidney weights"}, {"measurement": "clinical signs of salivation", "setting": "Sprague-Dawley rats; 8-hour infusion, 14 days", "value": "noted mostly at 2000 mg/kg/day and occasionally in the lower dose groups"}, {"measurement": "microscopic changes in the kidney", "setting": "Sprague-Dawley rats; 8-hour infusion, 14 days", "value": "tubular epithelial basophilia, pyelitis at the papillary tip and hyperplasia of the pelvic transitional epithelium"}, {"measurement": "treatment related deaths", "setting": "Sprague-Dawley rats; 100, 500 or 2000 mg/kg/day, 8-hour infusion, 14 days", "value": "no treatment related deaths"}, {"measurement": "dose concentration relationship", "setting": "Sprague-Dawley rats; 100-2000 mg/kg/day", "value": "proportional dose concentration relationship"}, {"measurement": "mean plasma concentrations between 4 to 7.75 hours from the start of infusion", "setting": "Sprague-Dawley rats; each day", "value": "remained constant"}, {"measurement": "kidney weights", "setting": "Sprague-Dawley rats; [8]", "value": "increased"}, {"measurement": "microscopic changes (kidney)", "setting": "Sprague-Dawley rats; [8]", "value": "only seen in one rat"}, {"measurement": "mean plasma concentrations between Days 1, 7 and 14", "setting": "Sprague-Dawley rats; rat, in vivo", "value": "similar"}, {"measurement": "mean steady state plasma concentrations, males versus females", "setting": "Sprague-Dawley rats; rat, in vivo", "value": "no differences"}, {"measurement": "no-effect-level", "setting": "Sprague-Dawley rats; rats, 8-hour infusion, 14 days", "value": 100, "unit": "mg/kg/day"}, {"measurement": "observable toxicity", "setting": "Sprague-Dawley rats; rats, doses of up to 2000 mg/kg/day, 14 consecutive days", "value": "little observable toxicity"}, {"measurement": "half-life", "setting": "[6]; in vivo, iv, rat, read-out: beta-t½", "value": "~30", "unit": "min"}, {"measurement": "clearance", "setting": "[6]; rat, in vivo, iv, rats, read-out: clearance rate", "value": "15 ± 1", "unit": "mL/min/kg"}, {"measurement": "volume of distribution", "setting": "[6]; rats", "value": "20-30 % of body weight"}]}
